Laboratory results as given in patent US20200316090A1, “TARGETED THERAPEUTICS” (MADRIGAL PHARMACEUTICALS, INC., priority 2012, published 2020).
Like-named read-outs stand apart in the source and are kept apart here.

Assays:
HER2 = HER2 degradation in BT-474 cells (Example 3, Method 1 Western blot / Method 2 LI-COR imaging); format: cell-based, human; settings: 0.5 μM, overnight
From the text: This example illustrates how a HER2 degradation assay may be used as a test to determine and select Hsp90-targeting moieties suitable for use in SDC-TRAPs of the invention, and further illustrates the ability of SDC-TRAPs to target cells preferentially expressing Hsp90. Such a test may further be used to determine the Hsp90 binding ability of SDC-TRAPs of the invention, as well as through competitive binding assays and cell-based Hsp90 client protein degradation assays known in the art.
After treatment, each cytoplasmic sample is prepared from 1×10^6 cells by incubation of cell lysis buffer (#9803, Cell Signaling Technology) on ice for 10 minutes. The resulting supernatant used as the cytosol fractions is dissolved with sample buffer for SDS-PAGE and run on a SDS-PAGE gel, blotted onto a nitrocellulose membrane by using semi-dry transfer. […]
Cells are then fixed in 4% phosphate-buffered paraformaldehyde for 30 minutes at room temperature and then permeabilized by washing five times with 0.1% Triton X-100 in PBS for 5 minutes at room temperature on a shaker. […] The raw data is normalized to DRAQS and the HER2 EC50 is calculated using XLfit™ […]

[1] = Mouse plasma stability (Examples 16-18); format: in vitro ADME; settings: 37° C.; for Mouse (5 μM) % Remaining 1 h (37° C.) * / Mouse (10 μM) % Remaining 1 h (37° C.) *: sum of both peaks of parent chromatogram
Procedure: This solution was used to precipitate all plasma samples in the study. 200 μL was pipetted into a 96 deepwell plate over dry ice. 10 μL of 1 mM stock in DMSO was added to a 1.5 mL microfuge tube, then 990 μL of plasma. Samples were mixed by vortex, then 50 μL of each sample was added in triplicate to a 96-well plate containing internal standard solution. This was designated the 0 hour time point sample. 250 μL of the remaining plasma sample was added to each of four 96 deepwell plates—one per time point. Samples were incubated at 37° C. with gentle shaking for 0.25, 0.5, and 1 hour. After each time point, one plate of each sample was removed from the shaker and placed on wet ice for approximately 2 minutes. 50 μL plasma aliquots (in triplicate) were added to the deepwell plate containing internal standard solution. After the last time point was extracted, the 96 deepwell plate was vortexed, then centrifuged at 2-8° C. 150 μL of supernatant was collected and 25 μL of water was added. Samples were mixed and analyzed by LC-MS/MS.
The stability of seven SDC-TRAP types in mouse plasma was measured as follows. 990 μL mouse plasma aliquots from a common stock were spiked with 10 μL of 1 mM stock of one of seven SDC-TRAP samples identified in the table below. Each sample was mixed and divided into 250 μL aliquots, each representing time points 0, 15 minutes, 30 minutes or 1 hour. At the prescribed time point, 3×50 μL samples were each mixed with 200 μL of methanol containing internal standard and held on dry ice until all time point samples were extracted. The samples collectively were vortex mixed for 1.5 minutes at 1500 rpm, then centrifuged at 4400 rpm for 10 minutes at 8° C.

[2] = Tissue distribution of SDC-TRAP and degradation products in tumor-bearing mice (plasma, tumor, heart); format: in vivo, Female SCID Mouse (H1975); settings: mouse, in vivo
Procedure: A 150 ng/mL solution of SDC-TRAP-0002 in methanol was prepared using an internal spiking solution (500 μg/mL SDC-TRAP-0002 in DMSO). Using the 10 mM stock solutions of the SDC-TRAP molecule and its Hsp90i binding moiety and effector moiety in DMSO, spiking solutions were prepared at 0.025, 0.05, 0.1, 0.5, 1, 5, 10, 50, 100, 250, and 500 μM in DMSO. 5 μL of each spiking solution was added to a 96-deep well plate.
Quality control standards were prepared from 5 μL of 0.1, 1, and 10 μM calibration standard spiking solution added in triplicate into 96-deep well plate and adding 50 μL of matrix (plasma or homogenized tumor).
To prepare test samples, test plasma was diluted as needed using blank plasma. Tumor samples were pulverized in liquid nitrogen, weighed, and homogenized in PBS at 5× volume to sample weight. 50 μL of unknown plasma or homogenized tumor sample was mixed with 5 μL of DMSO. The samples were extracted by precipitating calibration standards, QC standards, and unknown samples with 200 μL of internal standard solution. The samples were mixed by vortex at room temperature for approximately 1.5 minutes, then centrifuge at 2-8° C. 150 μL of supernatant was collected and 25 μL of water added. Samples were mixed and analyzed by LC-MS/MS.
Samples of plasma, heart and tumor were excised from a euthanized mouse, homogenized in PBS at 5 times tissue weight and diluted in 5 μL DMSO/50 μL sample. Prior to analysis, 55 μL samples and calibration standards were precipitated in 200 μL methanol in 96-well plates. Samples were mixed on a vortex mixer for 1.5 minutes at 1500 rpm at room temperature, then centrifuged at 4400 rpm for 10 minutes at 8° C. 150 μL of each supernatant was transferred to a well of a new 96-well plate, and 25 μL of water was added and mixed with the sample. […] For the analysis of samples from female SCID mice, a gradient of solvent A (water/0.1% formic acid) and B (acetonitrile/0.1% formic acid) was used as in Table A below.

[3] = Artificial membrane permeability assay (PAMPA)
[4] = tested on: MCF-7 breast cancer cells; assay: Mouse xenograft efficacy in an MCF-7 breast cancer model; format: in vivo, CD-1 nude mice
Procedure: MCF-7 breast cancer cells were purchased from ATCC. […] Fetal bovine serum was then added to the medium. The final concentration of fetal bovine serum was 10%. Cells were cultured at 37° C. and 5% CO2.
Mice that were not put on treatment were euthanized. Animals were sourced through CRL (Wilmington, Mass.).

[5] = PAMPA
in vitro = settings: PAMPA, Permeability (cm/s)
[6] = Tissue distribution of ganetespib in female CD-1 nu/nu mice bearing RERF human NSCLC xenografts; format: in vivo; settings: mouse, tumor, ganetespib 50 mg/kg IV, DRD
From the text: Tissue Distribution of Ganetespib in Female CD-1 Nu/Nu Mice Bearing RERF Human NSCLC Xenografts
To confirm the distribution of ganetespib in blood, livers, kidneys, brains, hearts, lungs and tumors after IV administration of ganetespib to female CD-1 nu/nu mice bearing RERF human NSCLC xenografts, and to examine metabolic profiles of ganetespib in plasma, red blood cells, and above tissues.
Animals: female CD-1 nu/nu mice bearing RERF human NSCLC xenografts (N=3/group)
Formulation: 10% DMSO, 18% Cremophor RH40, 3.6% dextrose solution (DRD)
Bleeding time points: 5 min, 6, 24 hr
Collected tissues: blood (plasma and red blood cells (RBC)), liver, kidneys, brain, heart, lung, tumor
Protein precipitation: 50 μL of 10 times diluted plasma or RBC+150 μL ACN (10 mM NH4OAc), vortexed and centrifuged at 10000 rpm for 8 min; 150 μL supernatant+150 μL water (10 mM NH4OAc)
Protein precipitation: 100 μL homogenized tissue (1:3 tissue: PBS buffer)+100 μL ACN (10 mM NH4OAc), vortexed and centrifuged at 10000 rpm for 8 min

C=CCNC1=C2C[C@@H](C)C[C@H](OC)[C@H](O)[C@@H](C)/C=C(\C)[C@H](OC(N)=O)[C@@H](OC)/C=C\C=C(/C)C(=O)NC(=CC1=O)C2=O [17-AAG]
degradation of HER2 (HER2): partial degradation of HER2

CCc1c2c(nc3ccc(OC(=O)N4CCN(Cc5ccc(-n6c(O)nnc6-c6cc(C(C)C)c(O)cc6O)cc5)CC4)cc13)-c1cc3c(c(=O)n1C2)COC(=O)C3(O)CC (stereo not shown) [SDC-TRAP-0046, 4,11-diethyl-4-hydroxy-3,14-dioxo-3,4,12,14-tetrahydro-1H-pyrano[3′,4′:6,7]indolizino[1,2-b]quinolin-9-yl 4-(4-(3-(2,4-dihydroxy-5-isopropylphenyl)-5-hydroxy-4H-1,2,4-triazol-4-yl)benzyl)piperazine-1-carboxylate]
Mouse (5 μM) % Remaining 1 h (37° C.) § ([1]; 5 μM, 1 h, data from single parent peak): 62% | Mouse (5 μM) % Remaining 1 h (37° C.) * ([1]; 5 μM, 1 h): 65% | Mouse (5 μM) % Remaining 19 h (37° C.) ([1]; 5 μM): 37% | Mouse (10 μM) % Remaining 1 h (37° C.) * ([1]; 1 h): 57% | concentration at 12 h ([2]; female, SCID, tissue distribution of SDC-TRAP-0046, 12 h, read-out: Plasma Conc.): 54.2 nM | Kp at 12 h ([2]; female, SCID, tissue distribution of SDC-TRAP-0046, 12 h, read-out: Tumor/Plasma Ratio): 40.3 | Papp at 5 h [3]: 0.0122 ×10⁻⁶ cm/s | Mass Retention (%) ([3]; same protocol, second table): 88.1% | Permeability (10^−6 cm/s) ([3]; same protocol, second table): 0.0122 10^−6 cm/s

CCc1c2c(nc3ccc(OC(=O)N4CCC(CCn5ccc6cc(-n7c(O)nnc7-c7cc(C(C)C)c(O)cc7O)ccc65)CC4)cc13)-c1cc3c(c(=O)n1C2)COC(=O)[C@]3(O)CC [SDC-TRAP-0063, 4,11-diethyl-4-hydroxy-3,14-dioxo-3,4,12,14-tetrahydro-1H-pyrano[3′,4′:6,7]indolizino[1,2-b]quinolin-9-yl 4-(2-(5-(3-(2,4-dihydroxy-5-isopropylphenyl)-5-hydroxy-4H-1,2,4-triazol-4-yl)-1H-indol-1-yl)ethyl)piperidine-1-carboxylate]
Kp at 1 h ([2]; female, SCID): 0.17 | Kp at 6 h ([2]; female, SCID): 2.25 | Kp at 24 h ([2]; female, SCID): 20.4 | Kp at 48 h ([2]; female, SCID): 6.85 | Kp at […] ([2]; female, SCID): 0.01 | concentration at 1 h ([2]; female, SCID): 52900 nM | concentration at 6 h ([2]; female, SCID): 4000 nM | concentration at 24 h ([2]; female, SCID): 359 nM | concentration at 48 h ([2]; female, SCID): 1110 nM | Tumor Conc. ([2]; female, SCID, 1 h): 9.12 nmol/g of tissue | Tumor Conc. ([2]; female, SCID, 6 h): 8.98 nmol/g of tissue | Tumor Conc. ([2]; female, SCID, 24 h): 7.32 nmol/g of tissue | Tumor Conc. ([2]; female, SCID, 48 h): 7.60 nmol/g of tissue | selective targeting of tumor (tissue distribution in plasma, tumor and heart) [2]: selectively targets and accumulates in tumor cells | Mass Retention (%) ([3]; same protocol, second table): 18.7% | suppression of increase in tumor volume ([4]; 150 mg/kg/1×wk versus 100 mg/kg/1×wk (FIG. 8)): appears to prolong the suppression of increase in tumor volume compared to a lower dose (100 mg/kg/1×wk) | tumor growth suppression versus comparators ([4]; either dose (150 or 100 mg/kg/1×wk) (FIG. 8)): greater tumor growth suppression than effector moiety irinotecan alone, or unconjugated binding moiety ganetespib and effector moiety irinotecan administered together

CC(C)c1cc(-c2nnc(O)n2-c2ccc3c(ccn3CCNC(=O)CCCC[C@@H]3SC[C@@H]4NC(=O)N[C@@H]43)c2)c(O)cc1O [SDC-TRAP-0233]
Mass Retention (%) [5]: 10.9% | Permeability [5]: 0.021 ×10⁻⁶ cm/s | Permeability (10^−6 cm/s) [5]: 0.021 10^−6 cm/s

CC(C)c1cc(-c2nnc(O)n2-c2ccc3c(ccn3CCNC(=O)CCCCCNC(=O)CCCC[C@H]3SC[C@H]4NC(=O)N[C@H]43)c2)c(O)cc1O [SDC-TRAP-0234]
Mass Retention (%) [5]: 9.56% | Permeability [5]: 0.0123 ×10⁻⁶ cm/s | Permeability (10^−6 cm/s) [5]: 0.0123 10^−6 cm/s

CCc1c2c(nc3ccc(O)cc13)-c1cc3c(c(=O)n1C2)COC(=O)[C@]3(O)CC [SN-38, reference compound]
Papp (in vitro; 5 h incubation, peak area used in place of concentration, first table): 0.643 ×10⁻⁶ cm/s | Papp (in vitro; same protocol, second table): 1.87 ×10⁻⁶ cm/s | Mouse (5 μM) % Remaining 1 h (37° C.) * ([1]; 5 μM, 1 h): 87% | Mouse (5 μM) % Remaining 19 h (37° C.) ([1]; 5 μM): 52% | Mouse (10 μM) % Remaining 1 h (37° C.) * ([1]; 1 h): 64% | Kp at 6 h ([2]; female, SCID): 5.8 | Kp at 12 h ([2]; female, SCID): 105 | Kp at 24 h ([2]; female, SCID): 105 | Kp at […] ([2]; female, SCID): 0.13 | concentration at 6 h ([2]; female, SCID): 77.3 nM | concentration at 12 h ([2]; female, SCID): 9.55 nM | concentration at 24 h ([2]; female, SCID): 9.55 nM | Tumor Conc. ([2]; female, SCID, 24 h): 1.07 nmol/g of tissue | Tumor Conc. ([2]; female, SCID, 48 h): 0.046 nmol/g of tissue | Mass Retention (%) ([3]; 5 h incubation, first table): 38.2% | Papp at 5 h ([3]; Permeability (10^−6 cm/s), 5 h incubation, peak area used in place of concentration, first table): 0.643 ×10⁻⁶ cm/s | Papp at 5 h ([3]; Permeability (10^−6 cm/s), same protocol, second table): 1.87 ×10⁻⁶ cm/s | Mass Retention (%) ([3]; same protocol, second table): 46.6%

CC(C)c1cc(-c2n[nH]c(=O)n2-c2ccc3c(ccn3C)c2)c(O)cc1O [ganetespib]
concentration at 5 min [6]: 2350 nM
